Experimental data reported in US5292733A, “Cephalosporin compounds” (Lucky Limited, priority 1991, dated 1994).
In brackets after ≈: the same amount, converted by molar mass.

What was measured:
Test in all cases: Antibacterial activity MIC, two-fold agar dilution
Format in all cases: cell-based
[1] = system: Acinetobacter calcoaceticus ATCC 15473; details: ATCC15473; Acinetobacter calcoaceticus ATCC 15473; Muller-Hinton agar, 37° C., 20 hours; read-out: Antibacterial Activity MIC
Description: (§1) These MIC values were taken by employing a two-fold dilution method: that is, two-fold serial dilutions of each of the test compounds were made and dispersed in a Muller-Hinton agar medium; 2 μl of the standard test strain which had the 10^7 CFU(Colony Forming Unit) per ml was inoculated on the medium; and these were incubated at 37° C. for 20 hours. The results of the MIC tests are shown Table 1.

[2] = system: Bacillus cereus ATCC 11778; details: ATCC11778; Bacillus cereus ATCC 11778; Muller-Hinton agar, 37° C., 20 hours; read-out: Antibacterial Activity MIC
Description: as §1

[3] = system: Bacillus megaterium ATCC 9885; details: Priestia megaterium, ATCC9885; Bacillus megaterium ATCC 9885; Muller-Hinton agar, 37° C., 20 hours; read-out: Antibacterial Activity MIC
Description: as §1

[4] = system: Citrobacter freundii ATCC 8090; details: ATCC8090; Citrobacter freundii ATCC 8090; Muller-Hinton agar, 37° C., 20 hours; read-out: Antibacterial Activity MIC
Description: as §1

[5] = system: Enterobacter aerogenes ATCC 29751; details: Klebsiella aerogenes, ATCC29751; Enterobacter aerogenes ATCC 29751; Muller-Hinton agar, 37° C., 20 hours; read-out: Antibacterial Activity MIC
Description: as §1

[6] = system: Enterobacter cloacae ATCC 27508; details: ATCC27508; Enterobacter cloacae ATCC 27508; Muller-Hinton agar, 37° C., 20 hours; read-out: Antibacterial Activity MIC
Description: as §1

[7] = system: Escherichia coli ATCC 10536; details: ATCC10536, Muller-Hinton agar, 37° C., 20 hours
Description: as §1

[8] = system: Escherichia coli ATCC 25922; details: ATCC25922, Muller-Hinton agar, 37° C., 20 hours
Description: as §1

[9] = system: Klebsiella pneumoniae ATCC 10031; details: ATCC10031; Klebsiella pneumoniae ATCC 10031; Muller-Hinton agar, 37° C., 20 hours; read-out: Antibacterial Activity MIC
Description: as §1

[10] = system: Micrococcus luteus ATCC 9341; details: ATCC9341; Micrococcus luteus ATCC 9341; Muller-Hinton agar, 37° C., 20 hours; read-out: Antibacterial Activity MIC
Description: as §1

[11] = system: Morganella morganii ATCC 8076h; details: ATCC8076H, Muller-Hinton agar, 37° C., 20 hours
Description: as §1

[12] = system: Proteus mirabilis ATCC 25933; details: ATCC25933; Proteus mirabilis ATCC 25933; Muller-Hinton agar, 37° C., 20 hours; read-out: Antibacterial Activity MIC
Description: as §1

[13] = system: Proteus vulgaris ATCC 6059; details: ATCC6059; Proteus vulgaris ATCC 6059; Muller-Hinton agar, 37° C., 20 hours; read-out: Antibacterial Activity MIC
Description: as §1

[14] = system: Providencia rettgeri ATCC 9250; details: ATCC9250, Muller-Hinton agar, 37° C., 20 hours
Description: as §1

[15] = system: Pseudomonas aeruginosa ATCC 10145; details: ATCC10145; Pseudomonas aeruginosa ATCC 10145; Muller-Hinton agar, 37° C., 20 hours; read-out: Antibacterial Activity MIC
Description: as §1

[16] = system: Pseudomonas aeruginosa ATCC 25619; details: ATCC25619; Pseudomonas aeruginosa ATCC 25619; Muller-Hinton agar, 37° C., 20 hours; read-out: Antibacterial Activity MIC
Description: as §1

[17] = system: Pseudomonas aeruginosa ATCC 27853; details: ATCC27853; Pseudomonas aeruginosa ATCC 27853; Muller-Hinton agar, 37° C., 20 hours; read-out: Antibacterial Activity MIC
Description: as §1

[18] = system: Salmonella typhimurium ATCC 14028; details: Salmonella enterica; Salmonella typhimurium ATCC 14028; Muller-Hinton agar, 37° C., 20 hours; read-out: Antibacterial Activity MIC
Description: as §1

[19] = system: Serratia marcescens ATCC 27117; details: ATCC27117; Serratia marcescens ATCC 27117; Muller-Hinton agar, 37° C., 20 hours; read-out: Antibacterial Activity MIC
Description: as §1

[20] = system: Shigella flexneri ATCC 11836; details: ATCC11836, Muller-Hinton agar, 37° C., 20 hours
Description: as §1

[21] = system: Shigella sonnei ATCC 11060; details: ATCC11060, Muller-Hinton agar, 37° C., 20 hours
Description: as §1

[22] = system: Staphylococcus aureus ATCC 10537; details: ATCC10537; Staphylococcus aureus ATCC 10537; Muller-Hinton agar, 37° C., 20 hours; read-out: Antibacterial Activity MIC
Description: as §1

[23] = system: Staphylococcus aureus ATCC 6538p; details: ATCC6538P; Staphylococcus aureus ATCC 6538p; Muller-Hinton agar, 37° C., 20 hours; read-out: Antibacterial Activity MIC
Description: as §1

[24] = system: Staphylococcus epidermidis ATCC 12228; details: ATCC12228; Staphylococcus epidermidis ATCC 12228; Muller-Hinton agar, 37° C., 20 hours; read-out: Antibacterial Activity MIC
Description: as §1

[25] = system: Streptococcus faecalis ATCC 29212; details: Enterococcus faecalis, ATCC29212; Streptococcus faecalis ATCC 29212; Muller-Hinton agar, 37° C., 20 hours; read-out: Antibacterial Activity MIC
Description: as §1

SMILES | MIC [1] [µg/mL] | MIC [2] [µg/mL] | MIC [3] [µg/mL] | MIC [4] [µg/mL] | MIC [5] [µg/mL] | MIC [6] [µg/mL] | MIC [7] [µg/mL] | MIC [8] [µg/mL] | MIC [9] [µg/mL] | MIC [10] [µg/mL] | MIC [11] [µg/mL] | MIC [12] [µg/mL] | MIC [13] [µg/mL] | MIC [14] [µg/mL] | MIC [15] [µg/mL] | MIC [16] [µg/mL] | MIC [17] [µg/mL] | MIC [18] [µg/mL] | MIC [19] [µg/mL] | MIC [20] [µg/mL] | other results
CCO/N=C(\C(=O)N[C@@H]1C(=O)N2C(C(=O)[O-])=C(CSc3cc(N)nc(N)[n+]3CC)CS[C@H]12)c1nsc(N)n1 [Compound I-6, (6R,7R)-7-[(Z)-2-(5-amino-1,2,4-thiadiazol-3-yl)-2-(ethoxyimino)acetamido]-3-(2,6-diamino-3-ethylpyrimidinium-4-yl)thiomethyl-3-cephem-4-carboxylate] | 8 (≈ 13.8 µM) | 64 (≈ 110 µM) | 0.13 (≈ 0.224 µM) | 0.13 (≈ 0.224 µM) | 0.5 (≈ 0.861 µM) | 0.063 (≈ 0.108 µM) | 0.13 (≈ 0.224 µM) | 0.13 (≈ 0.224 µM) | 0.031 (≈ 0.0534 µM) | 0.063 (≈ 0.108 µM) | ≤ 0.008 | 0.016 (≈ 0.0276 µM) | 0.031 (≈ 0.0534 µM) | ≤ 0.008 | 16 (≈ 27.6 µM) | 2 (≈ 3.44 µM) | 16 (≈ 27.6 µM) | 0.5 (≈ 0.861 µM) | 0.25 (≈ 0.431 µM) | 0.063 (≈ 0.108 µM) | MIC [21]: 0.25 µg/mL (≈ 0.431 µM); MIC [22]: 1 µg/mL (≈ 1.72 µM); MIC [23]: 1 µg/mL (≈ 1.72 µM); MIC [24]: 0.5 µg/mL (≈ 0.861 µM); MIC [25]: > 128 µg/mL
CCO/N=C(\C(=O)N[C@@H]1C(=O)N2C(C(=O)[O-])=C(CSc3cc(N)[n+](CC)c(N)n3)CS[C@H]12)c1nsc(N)n1 [Compound I-11, (6R,7R)-7-[(Z)-2-(5-amino-1,2,4-thiadiazol-3-yl)-2-(ethoxyimino)acetamido]-3-(2,6-diamino-1-ethylpyrimidinium-4-yl)thiomethyl-3-cephem-4-carboxylate] | 4 (≈ 6.89 µM) | 128 (≈ 220 µM) | 0.13 (≈ 0.224 µM) | 0.063 (≈ 0.108 µM) | 0.13 (≈ 0.224 µM) | ≤ 0.008 | 0.13 (≈ 0.224 µM) | 0.25 (≈ 0.431 µM) | ≤ 0.008 | 0.016 (≈ 0.0276 µM) | 0.016 (≈ 0.0276 µM) | 0.5 (≈ 0.861 µM) | 0.5 (≈ 0.861 µM) | ≤ 0.008 | 2 (≈ 3.44 µM) | 0.5 (≈ 0.861 µM) | 1 (≈ 1.72 µM) | 0.063 (≈ 0.108 µM) | 0.13 (≈ 0.224 µM) | 0.031 (≈ 0.0534 µM) | MIC [21]: 0.25 µg/mL (≈ 0.431 µM); MIC [22]: 0.5 µg/mL (≈ 0.861 µM); MIC [23]: 0.5 µg/mL (≈ 0.861 µM); MIC [24]: 0.25 µg/mL (≈ 0.431 µM); MIC [25]: 8 µg/mL (≈ 13.8 µM)
CCO/N=C(\C(=O)N[C@@H]1C(=O)N2C(C(=O)[O-])=C(CSc3cc(N)[n+](C)c(N)n3)CS[C@H]12)c1nsc(N)n1 [Compound I-10, (6R,7R)-7-[(Z)-2-(5-amino-1,2,4-thiadiazol-3-yl)-2-(ethoxyimino)acetamido]-3-(2,6-diamino-1-methylpyrimidinium-4-yl)thiomethyl-3-cephem-4-carboxylate] | 4 (≈ 7.06 µM) | 128 (≈ 226 µM) | 0.13 (≈ 0.229 µM) | 0.13 (≈ 0.229 µM) | 0.25 (≈ 0.441 µM) | 0.016 (≈ 0.0282 µM) | 0.13 (≈ 0.229 µM) | 0.25 (≈ 0.441 µM) | ≤ 0.008 | 0.016 (≈ 0.0282 µM) | 0.016 (≈ 0.0282 µM) | 0.25 (≈ 0.441 µM) | 0.25 (≈ 0.441 µM) | ≤ 0.008 | 1 (≈ 1.76 µM) | 0.5 (≈ 0.882 µM) | 1 (≈ 1.76 µM) | 0.063 (≈ 0.111 µM) | 0.13 (≈ 0.229 µM) | 0.031 (≈ 0.0547 µM) | MIC [21]: 0.25 µg/mL (≈ 0.441 µM); MIC [22]: 0.5 µg/mL (≈ 0.882 µM); MIC [23]: 0.5 µg/mL (≈ 0.882 µM); MIC [24]: 0.25 µg/mL (≈ 0.441 µM); MIC [25]: 8 µg/mL (≈ 14.1 µM)
